Patent publication US12195427B2, “MASP-2 inhibitors and methods of use” (priority 2018, dated 2025)

Biological target: MASP-2 CCP2-SP (Homo sapiens (Human), UniProt O00187)
Assay: MASP-2 co-crystallization, X-ray crystallography and structure analysis (H-bonds, van der Waals contacts);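 for Ligand-pharmacophore element distance, pharmacophore element C2: distance from averaged pharmacophore element to bound ligand; missing value means element absent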;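 for Ligand-pharmacophore element distance, pharmacophore element C3: distance from averaged pharmacophore element to bound ligand; missing value means element absent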;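 for Ligand-pharmacophore element distance, pharmacophore element C4: distance from averaged pharmacophore element to bound ligand; missing value means element absent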;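 for Ligand-pharmacophore element distance, pharmacophore element C5: distance from averaged pharmacophore element to bound ligand; missing value means element absent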
Parameters: van der Waals contact distance, MASP-2 HIS 483 atom CD2 / van der Waals contact distance, MASP-2 HIS 483 atom NE2 / van der Waals contact distance, SER 654 C to compound atom / van der Waals contact distance, SER 654 O to compound atom / van der Waals contact distance, TRP 655 C to compound atom / van der Waals contact distance, MASP-2 GLY 528 atom CA / van der Waals contact distance TRP 655 atom CZ3 / van der Waals contact distance TRP 655 atom N / van der Waals contact distance TRP 655 atom CE3 / van der Waals contact distance GLY 656 atom C / van der Waals contact distance GLY 656 atom CA / van der Waals contact distance GLY 656 atom O / van der Waals contact distance, MASP-2 TYR 607 atom CD1 / van der Waals contact distance, MASP-2 PRO 606 atom O / d(C3,CA1) / d(CA1,N1)2 / d(H4,O1) / d(H4,O2) / d(O1,O2) / d(CA1,O2) / d(CA6,O1) / d(CA6,O2) / d(CA1,C5) / d(O2,H3) / d(N2,C2) / d(CA5,N2) / d(N2,C4) / d(N2,C6) / d(N2,CA3) / d(N2,O3) / d(O4,H2): unit not given beside the values
Conditions: for Ligand-pharmacophore element distance, pharmacophore element C2 / Ligand-pharmacophore element distance, pharmacophore element C3 / Ligand-pharmacophore element distance, pharmacophore element C4 / Ligand-pharmacophore element distance, pharmacophore element C5 / Ligand-pharmacophore element distance, pharmacophore element C6 / Ligand-pharmacophore element distance, pharmacophore element C7 / Ligand-pharmacophore element distance, pharmacophore element CA1 / Ligand-pharmacophore element distance, pharmacophore element CA2 / Ligand-pharmacophore element distance, pharmacophore element CA3 / Ligand-pharmacophore element distance, pharmacophore element CA4 / Ligand-pharmacophore element distance, pharmacophore element CA5 / Ligand-pharmacophore element distance, pharmacophore element CA6: Table A4-1; for Pharmacophore torsion angle a(O1, O2, N2, CA2): Table A7-2
Method in brief: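 Inhibitor complexes were obtained by soaking crystals of E. coli-derived human MASP-2 CCP2-SP. Synchrotron diffraction at 1.0 wavelength, molecular replacement and partial refinement gave the models; one pose per ligand was chosen for contact analysis.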

[1] = Table A5-1 pharmacophore: distance between elements, S2/S1 region
[2] = Table A5-2 pharmacophore distance, S3/S4 region
[3] = Table A7-1, between pharmacophore elements of the bound compound
[4] = between pharmacophore elements of the bound compound

Sequence of MASP-2 CCP2-SP (O00187 445-686): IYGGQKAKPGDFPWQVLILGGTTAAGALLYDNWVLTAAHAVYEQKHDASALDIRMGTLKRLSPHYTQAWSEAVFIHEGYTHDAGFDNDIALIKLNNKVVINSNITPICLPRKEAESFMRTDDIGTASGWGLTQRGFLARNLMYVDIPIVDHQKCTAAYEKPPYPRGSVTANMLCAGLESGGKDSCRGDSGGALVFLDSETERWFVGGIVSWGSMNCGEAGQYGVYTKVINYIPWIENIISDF
Sequence of MASP-2 CCP2-SP (O00187 364-432 partner): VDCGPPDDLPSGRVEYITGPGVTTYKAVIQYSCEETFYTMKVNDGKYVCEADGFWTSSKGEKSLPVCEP

SMILES: Cc1nc(N)ccc1CNC(=O)[C@H](C)NC(=O)[C@H]1C[C@H](Cc2cccc(Cl)c2)CN1.Cl.Cl [1328_1]
- Ligand-pharmacophore element distance, pharmacophore element C2: 0
- Ligand-pharmacophore element distance, pharmacophore element C3: 0.4
- Ligand-pharmacophore element distance, pharmacophore element C4: 0.76
- Ligand-pharmacophore element distance, pharmacophore element C5: 0
- Ligand-pharmacophore element distance, pharmacophore element C6: 0
- Ligand-pharmacophore element distance, pharmacophore element C7: 0
- Ligand-pharmacophore element distance, pharmacophore element CA1: 0.49
- Ligand-pharmacophore element distance, pharmacophore element CA2: 0.5
- Ligand-pharmacophore element distance, pharmacophore element CA3: 0
- Ligand-pharmacophore element distance, pharmacophore element CA4: 0
- Ligand-pharmacophore element distance, pharmacophore element CA5: 0
- Ligand-pharmacophore element distance, pharmacophore element CA6: 0
- d(C3,CA1) [1]: 2.85
- d(CA1,N1)2 [1]: 1.37
- d(CA1,O1) [1]: 4.24
- d(CA1,O2) [1]: 3.54
- d(H4,O1) [1]: 4.21
- d(H4,O2) [1]: 3.54
- d(O1,O2) [1]: 3.13
- d(N2,C4) [2]: 8.09
- d(N2,C4)4 [2]: 8.09
- d(N2,CA2) [2]: 5.88
- d(O2,H3) [2]: 4.20
- d(O2,N2) [2]: 2.79
- a(C3, CA1, O1) (Table A6-1 pharmacophore angle): 150.62
- a(CA1, O1, O2) (Table A6-1 pharmacophore angle): 101.20
- a(O1, O2, H4) (Table A6-1 pharmacophore angle): 133.34
- a(N1, CA1, O1) b) (Table A6-1 pharmacophore angle, Methyl-amino-pyridine compounds): 175.41
- a(O1, O2, H3) (Table A6-2 pharmacophore angle): 150.01
- a(O1, O2, N2) (Table A6-2 pharmacophore angle): 145.32
- a(O2, N2, C4) (Table A6-2 pharmacophore angle): 161.66
- a(O2, N2, C4) 2 (Table A6-2 pharmacophore angle): 114.03
- a(O2, N2, CA2) (Table A6-2 pharmacophore angle): 155.25
- Pharmacophore torsion angle a(C3, CA1, O1, H4) [3]: 30.10
- Pharmacophore torsion angle a(H4, O1, O2, H3) [3]: 55.62
- Pharmacophore torsion angle a(H4, O1, O2, N2) [3]: 136.65
- Pharmacophore torsion angle a(N1, CA1, O1, H4) [3]: 20.31
- Pharmacophore torsion angle a(O1, H4, O2, CA1) [3]: −88.07
- Pharmacophore torsion angle a(O1, O2, N2, CA2) [4]: 126.19

SMILES: C[C@H](NC(=O)[C@H]1C[C@H](Cc2ccccc2)CN1)C(=O)NCc1ccc(C(=N)N)cc1.Cl.Cl [1306_2]
- Ligand-pharmacophore element distance, pharmacophore element C2: 0
- Ligand-pharmacophore element distance, pharmacophore element C3: 0
- Ligand-pharmacophore element distance, pharmacophore element C4: 0
- Ligand-pharmacophore element distance, pharmacophore element C5: 0
- Ligand-pharmacophore element distance, pharmacophore element C6: 0
- Ligand-pharmacophore element distance, pharmacophore element C7: 0
- Ligand-pharmacophore element distance, pharmacophore element CA1: 0.74
- Ligand-pharmacophore element distance, pharmacophore element CA2: 1.14
- Ligand-pharmacophore element distance, pharmacophore element CA3: 0
- Ligand-pharmacophore element distance, pharmacophore element CA4: 0
- Ligand-pharmacophore element distance, pharmacophore element CA5: 0
- Ligand-pharmacophore element distance, pharmacophore element CA6: 0
- d(CA1,N1) [1]: 3.60
- d(CA1,O1) [1]: 3.99
- d(CA1,O2) [1]: 4.29
- d(H4,O1) [1]: 6.07
- d(H4,O2) [1]: 5.71
- d(O1,O2) [1]: 2.68
- d(N2,CA2) [2]: 6.15
- d(O2,H3) [2]: 4.46
- d(O2,N2) [2]: 2.71
- a(CA1, O1, O2) (Table A6-1 pharmacophore angle): 114.80
- a(O1, O2, H4) (Table A6-1 pharmacophore angle): 153.92
- A(N1, CA1, O1) a) (Table A6-1 pharmacophore angle, all compounds with protonatable center N1 except Methyl-amino-pyridine): 161.00
- a(O1, O2, H3) (Table A6-2 pharmacophore angle): 151.24
- a(O1, O2, N2) (Table A6-2 pharmacophore angle): 153.80
- a(O2, N2, CA2) (Table A6-2 pharmacophore angle): 158.08
- Pharmacophore torsion angle a(H4, O1, O2, H3) [3]: 40.51
- Pharmacophore torsion angle a(H4, O1, O2, N2) [3]: 134.08
- Pharmacophore torsion angle a(N1, CA1, O2, H4) [3]: −77.87
- Pharmacophore torsion angle a(O1, H4, O2, CA1) [3]: −12.97
- Pharmacophore torsion angle a(O1, O2, N2, CA2) [4]: 124.98
